According to patent EP1283052A1, “Pharmaceutical composition containing caspase-8 and /or caspase-9 useful for overcoming glucocorticoid- and cancer therapy-induced apoptosis of tumours” (Deutsches Krebsforschungszentrum Stiftung des öffentlichen …, priority 2001, dated 2003):

System: CD95-L, TRAIL and TNF-α
Assay: Western blot of death ligand expression in P5 and CEM cells
Type: cell-based, human
Settings: cisplatin alone (1-5 µg/ml), both cell types; Fig. 2a
Method: • (a) Left: P5 an CEM cells were treated with cisplatin (1-5 µg/ml) in the absence or presence of DEX (1 µM) as indicated. Proteins were extracted and expression of CD95-L, TRAIL or TNF-α was detected by Western blot analysis. The size of the proteins in kDa is indicated. Right: HeLa and P5 were treated with CD95 agonistic antibody αAPO-1 (CD95, 1 µg/ml), recombinant TRAIL protein (TRAIL, 100 ng/ml) or recombinant TNF-α protein (TNF-α, 100 ng/ml) in the absence (white bars) or presence (black bars) of DEX (1 µM). 24 h later the percentage of apoptosis was determined by annexin-staining and FACS-analysis in untreated (CO) and stimulated cells at the time points indicated. • (b) P693 and CEM cells were treated with cisplatin (2 µg/ml) in the absence or presence of DEX as indicated. 24 and 48 h following treatment cells were lysed and caspase-8 activity was determined by a fluorescent caspase-8 assay and spectroscopy. • (c) P5 cells were stable transfected with empty vector (pcDNA3), or pcDNA3 vector encoding dominant negative FADD protein (FADD-DN). Proteins were extracted from both cell lines and expression of wildtype (WT) and FADD-DN (DN) was detected by Western blot. Left: Stable transfected P5 cells were treated with αAPO-1 (1 µg/ml) and 24 h later apoptosis was determined by staining with annexin/propidium iodide and flow-cytometry. […]

N.N.[Cl][Pt][Cl] [cisplatin]
expression of DILs such as CD95-L, TRAIL and TNF-α: enhanced expression
